Results on 18 compounds are retold here after patent US20030039661A1, “Methods, compositions and kits for preserving antigenicity” (priority 2001, published 2003).

Peptide text beside a SMILES is read from it. * marks the point of attachment. Cbz = O=C(OCc1ccccc1)*; CH2F = FC* A value given as a limit tells only on which side of the number the result lay.

One data set relates to mammary epithelial cells. The note with it: in the absence of extracellular matrix; cited from earlier work.
Data set [1] deals with granulocytes. As to the kind of experiment: Respiratory burst in isolated neutrophils measured by chemiluminescence (opsonized zymosan). In kind it is cell-based. The settings on record: FIG. 7. The method, then: Respiratory Burst in Isolated Neutrophils Measured by Chemiluminescence
Whole blood anticoagulated with Acid Citrate Dextrose (ACD) with a ratio of 1:5 ACD to blood was collected (150 ml).
Neutrophils were isolated as described above.
Opsonized zymosan was prepared by suspending 125 mg zymosan particles in 25 ml pooled human serum (5 mg/ml) and incubating them for 20 minutes at 37° C. Centrifuge the suspension and resuspend the particles in 7 ml of PBS (18 mg/ml) and stored on ice until use (vortex prior to pipetting).
50 ml of a 250 μM solution of Lucigenin (MW 510.5) was prepared by dissolving 6.4 mg of the solid in 50 ml of PBS-G (+Ca, Mg). 10 μl of PBS-G (+Ca, Mg) to the wells in a white 96 well plate.
50 μl of the 250 μM Lucigenin solution was added to the wells in a white 96 well plate.
Cell preparations were obtained from cell culture (concentration at time zero=5.0×10^6 cells/ml) with PBS-G (+Ca, Mg).
20 μl of the neutrophil suspension was suspended to the appropriate wells and the plate was incubated at 37° C. for three minutes. 10 μl of the opsonized zymosan was added to the wells.
The plate was read on the luminometer (Labsystems Luminoskan, Needham Heights, Mass.) for 14 min. at 37° C. in the kinetic mode and record results using the software DeltaSoft.
The ability to undergo the respiratory burst is another measure of granulocyte viability. The respiratory burst is a physiological response of granulocytes to foreign stimuli such as bacteria. In this example, the method for inducing the respiratory burst utilized opsonized bacterial zymosan. The respiratory burst was measured via chemiluminescence.

Data set [2] has as its system granulocytes in whole blood. Nature of the data set: Whole blood assay: survival of granulocytes in whole blood by hypodiploid analysis. In kind it is cell-based. The method, then:
The following protocol was followed:
200 μl blood sample/2.8 ml 1× lysis solution in a 15 ml polypropylene conical tube.
Add 20 μl/sample anti-CD32-FITC. Incubate 30 minutes on ice in the dark.
Add 3 ml/sample ice-cold 95% EtOH dropwise while vortexing gently.
Resuspend each sample in 50 μl 5 mg/ml RN'ase. Transfer sample to 900 μl/sample.
50 μg/ml Propidium Iodide in 12×75 mm Falcon polystyrene tubes.
Analyze samples by flow cytometry (argon laser) for forward and side scatter and fluorescence.
Survival of granulocytes in whole blood was measured by hypodiploid analysis in a similar fashion to isolated granulocytes via flow cytometry. ICE/ced-3 inhibitors of the present invention maintained survival of granulocytes in whole blood for 96 hours at room temperature as indicated in the table below: […]

For data set [3], the system named is granulocytes. As to the kind of experiment: Granulocyte survival, hypodiploid nuclei by propidium iodide flow cytometry (isolated granulocytes in culture). In kind it is cell-based. The settings on record: FIG. 6; for IC50: isolated granulocytes cultured at 37° C., read-out: IC50 for granulocyte survival (hypodiploid DNA). The protocol: Neutrophil Culture Conditions:
The culture media was as follows: (RPMI 1640; 10% FBS; 10 mM Hepes; 0.2 mM L-glutamine; 25 U/ml penicillin; and […] streptomycin).
Purified neutrophil maintenance was performed under the following conditions: (5×10^6 cells/ml in above culture media; Polystyrene round-bottom 96-well plates; 250 μl/well; and 37° C., 5% CO2/95% air humidified incubator) (Liles et al., Blood 119 (1995) 3181-3188).
Analysis of Hypodiploid Nuclei by Flow Cytometry:
(50 μg/ml propidium iodide (Sigma catalog#P4170); 0.1% Triton X-100; and 0.1 sodium citrate).
Neutrophils were pelleted at 4° C. and the supernate aspirated.
Neutrophils were resuspended in hypotonic fluorochrome solution at a density of 5×10^6 cells/ml. Propidium iodide fluorescence of individual nuclei was evaluated in FL2 and measured on a logarithmic scale while gating on physical parameters in forward and side scatter to exlude cell debris.
At least 10,000 events per sample were collected and the results were evaluated relative to a non-apoptotic neutrophil population. (Liles et al., Blood 119 (1995) 3181-3188).
The present invention provides methods to enhance the ex vivo survival of neutrophils/granulocytes. To establish the ability of compounds to preserve granulocytes in culture, compounds were tested in a number of in vitro assays. One common model to test for effects on granulocyte survival involves separating granulocytes from fresh whole blood, culturing the cells at 37° C. and testing cells for nuclear hypodiploidy at 24 hour intervals (as described in Example 110). The presence of hypodiploid DNA is a measure of apoptosis, and is assessed using a propidium iodide stain via flow cytometry. Compounds of the present invention were incubated with the granulocytes in culture, their effects on granulocyte survival measured, and an IC50 calculated.
In general terms: A flow cytometer gives signals particle by particle.

Another data set deals with T-lymphocyte cell line. The note with it: cited from earlier work.
Another data set deals with motoneurons. The settings on record: in vitro and in vivo; cited from earlier work.
The mark [4] stands for this setting: after granulocyte culture for 72 hours.
[5] abbreviates: granulocyte culture for 48 hours.

As to `CC(C)(C)OC(=O)N[C@@H](CC(=O)OCc1ccccc1)C(=O)CCl` [Boc-D-(benzyl) chloromethylketone], the “cell death of mammary epithelial cells” value with mammary epithelial cells is recorded as “prevented”.

On to `Cc1c(C(=O)N[C@H](C(=O)NC(CC(=O)O)C(=O)CF)C(C)C)n(C)c2ccccc12` (some centres unmarked) [Example 43, N-[(1.3-dimethylindole-2-carbonyl)valinyl]-3-amino-4-oxo-5-fluoropentanoic Acid], for which the “maintenance of the respiratory burst” value is on record as “partially maintained” with granulocytes [1] (setting [4]) and “substantially maintained” in the data set on granulocytes [1] (setting [5]). The “Percentage of diploid granulocytes in whole blood” value is reported as 91% in data set [2] (96 hours at room temperature) and 96% in data set [2] (time zero).

For orientation: IC50 means the concentration at which inhibition is half-maximal. Take `Cc1c(C(=O)N[C@H](C(=O)NC(CC(=O)O)C(=O)COC(=O)c2c(Cl)cccc2Cl)C(C)C)n(C)c2ccccc12` (some centres unmarked) [Example 70, N-[N-(1,3-dimethyl-indole-2-carbonyl)-valinyl]-3-amino-5-(2,6-dichlorobenzoyl)oxy-4-oxo-pentanoic Acid]: the half-maximal inhibitory concentration (IC50) with granulocytes [3] was < 5 µM. In addition, the figures for the “maintenance of the respiratory burst” value in the data set on granulocytes [1] (setting [4]) and in the data set on granulocytes [1] (setting [5]) were “partially maintained” and “substantially maintained”, respectively. Moreover, the “Percentage of diploid granulocytes in whole blood” value came out at 89% in data set [2] (96 hours at room temperature) and 96% in data set [2] (time zero).

In general, melting point refers to the temperature, or range, at which the solid turns liquid. `O=C1C[C@H](NC(=O)[C@@H]2Cc3cccc4c3N2C(=O)[C@@H](NC(=O)OCc2ccccc2)CC4)C(O)O1` (some centres unmarked) [Example 78] registered a melting point of 101 to 104 °C.

Regarding `CC(=O)N[C@@H](CC(=O)O)C(=O)N[C@H]1CCc2cccc3c2N(C1=O)[C@H](C(=O)N[C@H]1CC(=O)OC1O)C3` (some centres unmarked) [Example 82], the melting point was 160 to 175 °C (dec.).

Consider `O=C(O)CCC(=O)N[C@H]1CCc2cccc3c2N(C1=O)[C@H](C(=O)N[C@H]1CC(=O)OC1O)C3` (some centres unmarked) [Example 85], for which the melting point was 145 to 160 °C (dec.).

For `O=C(O)C[C@H](NC(=O)OCc1ccccc1)C(=O)N[C@H]1CCc2cccc3c2N(C1=O)[C@H](C(=O)N[C@H]1CC(=O)OC1O)C3` (some centres unmarked) [Example 88], the melting point was 140 to 144 °C (dec.).

With `O=C(CCc1ccccc1)N[C@H]1CCc2cccc3c2N(C1=O)[C@H](C(=O)N[C@H]1CC(=O)OC1O)C3` (some centres unmarked) [Example 91], the melting point lay in the range of 78 to 81 °C.

With `CC(=O)N[C@H]1CCc2cccc3c2N(C1=O)[C@H](C(=O)N[C@H]1CC(=O)OC1O)C3` (some centres unmarked) [Example 94], the melting point is 210 to 215 °C (dec.).

For `O=C1C[C@H](NC(=O)[C@@H]2Cc3cccc4c3N2C(=O)[C@@H](NC(=O)c2cccc3ccccc23)CC4)C(O)O1` (some centres unmarked) [Example 97], the melting point is 202 to 203 °C (dec.).

For `O=C1C[C@H](NC(=O)[C@@H]2Cc3cccc4c3N2C(=O)[C@@H](NC(=O)c2ccccc2)CC4)C(O)O1` (some centres unmarked) [Example 100], the melting point is 204 to 205 °C (dec.).

Turning to `O=C1C[C@H](NC(=O)C2CCc3cccc4c3N2C(=O)[C@@H](NC(=O)OCc2ccccc2)CC4)C(O)O1` (some centres unmarked) [Example 103], the melting point is 120 to 123 °C (dec.).

For the compound `O=C(O)CC(NC(=O)[C@@H]1Cc2cccc3c2N1C(=O)[C@@H](NC(=O)OCc1ccccc1)CC3)C(=O)CF` (some centres unmarked) [Example 106], in the data set on granulocytes [3], the IC50 was < 5 µM.

With `O=C(O)C[C@H](NC(=O)[C@@H]1Cc2cccc3c2N1C(=O)[C@@H](NC(=O)OCc1ccccc1)CC3)C(=O)COP(=O)(c1ccccc1)c1ccccc1` [Example 109, 3-[(2S-cis)-[5-benzyloxycarbonylamino-1,2,3,4,5,6,7-hexahydro-4-oxoazepino[3,2,1-hi]indole-2-carbonyl]amino]-5-(diphenylphosphinyl)oxy-4-oxo-pentanoic Acid], the melting point is 109 to 111 °C (dec.).

With `CC(=O)N[C@@H](CC(=O)O)C(=O)N[C@@H](CCC(=O)O)C(=O)N[C@H](C(=O)N[C@H](C=O)CC(=O)O)C(C)C` [acetyl-DEVD-aldehyde], the anti-Fas induced apoptosis entry in the data set with T-lymphocyte cell line is “inhibited”.

Turning to `CC(=O)N[C@@H](Cc1ccc(O)cc1)C(=O)N[C@H](C(=O)N[C@@H](C)C(=O)N[C@@H](CC(=O)O)C(=O)CCl)C(C)C` [acetyl-YVAD-chloromethylketone], the death of motoneurons result with motoneurons is “blocked”.

For `COC(=O)C[C@H](NC(=O)[C@H](C)NC(=O)[C@@H](NC(=O)OCc1ccccc1)C(C)C)C(=O)CF` [zVADfmk, reference compound] (Cbz-Val-Ala-Asp(OMe)-CH2F), the “effect on improving granulocyte survival” value with granulocytes [3] (at 48 hours) is given as “weak effect”. Further, the “maintenance of the respiratory burst” value in the data set with granulocytes [1] (time not stated) is recorded as “did not maintain”.

As to acetyl-AD-aldehyde, in the data set with motoneurons, the death of motoneurons entry is listed as “blocked”.
